Assay results from patent publication US20020137929A1, “1 - (3-heterocyclylphenyl) isothiourea, -isourea, -guanidine and -amidine herbicidal agents” (Intellectual Property Department, BASF Aktiengesellschaft, priority 1998, published 2002).

Assays:
[1] = test system: CHEAL (Lambsquarters, Common); assay: Postemergence herbicidal evaluation; format: in vivo, Chenopodium album; conditions: for CHEAL herbicidal rating: postemergence
In short: (§1)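 Two-week-old seedlings sprayed with compound in 50/50 acetone/water plus 0.5% TWEEN 20, at about 0.0156 to 0.500 kg/ha, nozzle at 40 psi. Kept in greenhouse; rated visually 4-5 weeks after treatment on a 0-9 scale versus control, repeat tests averaged.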

[2] = test system: GLXMAW (Soybean, Williams); assay: Postemergence herbicidal evaluation; format: in vivo, Glycine max, (L.) Merr. cv Williams; conditions: for GLXMAW herbicidal rating: postemergence
In short: as §1

[3] = test system: GALAP (Galium); assay: Preemergence herbicidal evaluation; format: in vivo, Galium aparine; conditions: rated 4-5 weeks after treatment
In short: (§2)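 Rating at 4–5 wk post-spray on a 0–9 visual scale vs control. Application: aqueous acetone, ~0.0156–0.500 kg/ha, to soil surface after seeding, preemergence.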

[4] = test system: ORYSAT (Rice, Tebonnet); assay: Postemergence herbicidal evaluation; format: in vivo, Oryza sativa, (L.) Tebonnet; conditions: for ORYSAT herbicidal rating: postemergence
In short: as §1

[5] = test system: SETVI (Foxtail, Green); assay: Preemergence herbicidal evaluation; format: in vivo, Setaria viridis; conditions: rated 4-5 weeks after treatment
In short: as §2

[6] = test system: CYPIR (Rice Flatsedge); assay: Preemergence weed control under flooded paddy conditions; format: in vivo, Cyperus iria; conditions: rated 3-4 weeks after treatment
In short: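 Silt loam, seeds in top 0.5 cm; flood held 1.5-3 cm; test cpd as acetone/water 50/50 into flood water, ~0.0313-0.500 kg/ha a.i.; greenhouse 3-4 wk; visual 0-9 score vs control.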

[7] = test system: SETVI (Foxtail, Green); assay: Postemergence herbicidal evaluation; format: in vivo, Setaria viridis; conditions: for SETVI herbicidal rating: postemergence
In short: as §1

[8] = test system: ABUTH (Velvetleaf); assay: Postemergence herbicidal evaluation; format: in vivo, Abutilon theophrasti; conditions: for ABUTH herbicidal rating: postemergence
In short: as §1

[9] = test system: SAGPY (Arrowhead (Pygmaea)); assay: Postemergence weed control under flooded paddy conditions; format: in vivo, Sagittaria pygmaea; conditions: postemergence weeds, 3-4 weeks after treatment
In short: (§3)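 Containers holding 3–5 cm weeds and rice at 1.5–2.5 leaves are flooded to 1.5–3 cm above soil. Compound in 50/50 v/v aqueous/acetone is then added directly to the water, about 0.0313–0.500 kg/ha. Plants are kept in the greenhouse and rated 0–9 visually at 3–4 weeks.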

[10] = test system: ECHORC (Watergrass (Calif.)); assay: as above; format: in vivo, Echinochloa oryzoides; conditions: postemergence weeds, 3-4 weeks after treatment
In short: as §3

[11] = test system: CYPSE (Flatsedge); assay: as above; format: in vivo, Cyperus serotinus; conditions: postemergence weeds, 3-4 weeks after treatment
In short: as §3

[12] = test system: AMBEL (Ragweed, Common); assay: Preemergence herbicidal evaluation; format: in vivo, Ambrosia artemisifolia; conditions: rated 4-5 weeks after treatment
In short: as §2

[13] = test system: TRZAWR (Wheat, Winter, cv Riband); assay: Postemergence herbicidal evaluation; format: in vivo, Triticum aestivum; conditions: for TRZAWR herbicidal rating: postemergence
In short: as §1

[14] = test system: ZEAMX (Corn, Field); assay: Postemergence herbicidal evaluation; format: in vivo, Zea mays; conditions: for ZEAMX herbicidal rating: postemergence
In short: as §1

CCOC(=O)CN1C(=O)C[S+]([O-])/C1=N/c1cc(-n2c(=O)cc(C(F)(F)F)n(C)c2=O)c(F)cc1Cl (centres unmarked) [Compound 45, 2-{{2-Chloro-5-[3,6-dihydro-3-methyl-2,6-dioxo-4-(trifluoromethyl)-1(2H)-pyrimidinyl]-4-fluoro-phenyl}imino}-4-oxo-3-thiazolidineacetic acid, ethyl ester, 1-oxide]
Postemergence herbicidal rating CHEAL ([1]; Rate 0.0156 kg/ha): 0.0
Postemergence herbicidal rating CHEAL ([1]; Rate 0.0313 kg/ha): 5.0
Postemergence herbicidal rating CHEAL ([1]; Rate 0.0625 kg/ha): 9.0
Postemergence herbicidal rating GLXMAW ([2]; Rate 0.0156 kg/ha): 5.5
Postemergence herbicidal rating GLXMAW ([2]; Rate 0.0313 kg/ha): 6.5
Postemergence herbicidal rating GLXMAW ([2]; Rate 0.0625 kg/ha): 7.0
Preemergence herbicidal rating GALAP ([3]; rate 0.0156 kg/ha): 0.0
Preemergence herbicidal rating GALAP ([3]; rate 0.0313 kg/ha): 0.0
Preemergence herbicidal rating GALAP ([3]; rate 0.0625 kg/ha): 0.0
Preemergence herbicidal rating GALAP ([3]; rate 0.1250 kg/ha): 0.0
Preemergence herbicidal rating GALAP ([3]; rate 0.2500 kg/ha): 7.0
Postemergence herbicidal rating ORYSAT ([4]; Rate 0.0156 kg/ha): 1.5
Postemergence herbicidal rating ORYSAT ([4]; Rate 0.0313 kg/ha): 1.5
Postemergence herbicidal rating ORYSAT ([4]; Rate 0.0625 kg/ha): 2.0
Preemergence herbicidal rating SETVI ([5]; rate 0.0156 kg/ha): 0.0
Preemergence herbicidal rating SETVI ([5]; rate 0.0313 kg/ha): 0.0
Preemergence herbicidal rating SETVI ([5]; rate 0.0625 kg/ha): 0.0
Preemergence herbicidal rating SETVI ([5]; rate 0.1250 kg/ha): 0.0
Preemergence herbicidal rating SETVI ([5]; rate 0.2500 kg/ha): 0.0
Herbicidal rating CYPIR ([6]; 0.0313 kg/ha): 0.0
Herbicidal rating CYPIR ([6]; 0.0625 kg/ha): 3.0
Herbicidal rating CYPIR ([6]; 0.1250 kg/ha): 7.0
Herbicidal rating CYPIR ([6]; 0.2500 kg/ha): 7.0
Postemergence herbicidal rating SETVI ([7]; Rate 0.0156 kg/ha): 0.0
Postemergence herbicidal rating SETVI ([7]; Rate 0.0313 kg/ha): 0.0
Postemergence herbicidal rating SETVI ([7]; Rate 0.0625 kg/ha): 2.0
Postemergence herbicidal rating ABUTH ([8]; Rate 0.0156 kg/ha): 9.0
Postemergence herbicidal rating ABUTH ([8]; Rate 0.0313 kg/ha): 9.0
Postemergence herbicidal rating ABUTH ([8]; Rate 0.0625 kg/ha): 9.0
Herbicidal rating SAGPY ([9]; rate 0.0313 kg/ha): 0.0
Herbicidal rating SAGPY ([9]; rate 0.0625 kg/ha): 0.0
Herbicidal rating SAGPY ([9]; rate 0.1250 kg/ha): 0.0
Herbicidal rating SAGPY ([9]; rate 0.2500 kg/ha): 4.0
Herbicidal rating ECHORC ([10]; rate 0.0313 kg/ha): 3.0
Herbicidal rating ECHORC ([10]; rate 0.0625 kg/ha): 4.0
Herbicidal rating ECHORC ([10]; rate 0.1250 kg/ha): 7.0
Herbicidal rating ECHORC ([10]; rate 0.2500 kg/ha): 7.0
Herbicidal rating CYPSE ([11]; rate 0.0313 kg/ha): 0.0
Herbicidal rating CYPSE ([11]; rate 0.0625 kg/ha): 0.0
Herbicidal rating CYPSE ([11]; rate 0.2500 kg/ha): 0.0
Preemergence herbicidal rating AMBEL ([12]; rate 0.0156 kg/ha): 0.0
Preemergence herbicidal rating AMBEL ([12]; rate 0.0313 kg/ha): 0.0
Preemergence herbicidal rating AMBEL ([12]; rate 0.0625 kg/ha): 0.0
Preemergence herbicidal rating AMBEL ([12]; rate 0.1250 kg/ha): 0.0
Preemergence herbicidal rating AMBEL ([12]; rate 0.2500 kg/ha): 2.0
Postemergence herbicidal rating TRZAWR ([13]; Rate 0.0156 kg/ha): 4.0
Postemergence herbicidal rating TRZAWR ([13]; Rate 0.0313 kg/ha): 4.0
Postemergence herbicidal rating TRZAWR ([13]; Rate 0.0625 kg/ha): 4.5
Postemergence herbicidal rating ZEAMX ([14]; Rate 0.0156 kg/ha): 4.5
Postemergence herbicidal rating ZEAMX ([14]; Rate 0.0313 kg/ha): 5.0
Postemergence herbicidal rating ZEAMX ([14]; Rate 0.0625 kg/ha): 5.5

CCOC(=O)CN1C(=O)C(F)SC1=Nc1cc(-n2c(=O)cc(C(F)(F)F)n(C)c2=O)c(F)cc1Cl (centres unmarked) [Compound 11, Ethyl 2-{{2-chloro-5-[3,6-dihydro-3-methyl-2,6-dioxo-4-(trifluoromethyl)-1(2H)-pyrimidinyl]-4-fluorophenyl}imino}-5-fluoro-4-oxo-3-thiazolidineacetate]
CHEAL herbicidal rating ([1]; rate 0.0156 kg/ha): 7.0
CHEAL herbicidal rating ([1]; rate 0.0313 kg/ha): 9.0
CHEAL herbicidal rating ([1]; rate 0.0625 kg/ha): 9.0
CHEAL herbicidal rating ([1]; rate 0.1250 kg/ha): 9.0
GLXMAW herbicidal rating ([2]; rate 0.0156 kg/ha): 5.0
GLXMAW herbicidal rating ([2]; rate 0.0313 kg/ha): 7.5
GLXMAW herbicidal rating ([2]; rate 0.0625 kg/ha): 9.0
GLXMAW herbicidal rating ([2]; rate 0.1250 kg/ha): 9.0
GALAP preemergence herbicidal rating ([3]; rate 0.0156 kg/ha): 0.0
GALAP preemergence herbicidal rating ([3]; rate 0.0313 kg/ha): 0.0
GALAP preemergence herbicidal rating ([3]; rate 0.0625 kg/ha): 0.0
GALAP preemergence herbicidal rating ([3]; rate 0.1250 kg/ha): 0.0
GALAP preemergence herbicidal rating ([3]; rate 0.2500 kg/ha): 9.0
ORYSAT herbicidal rating ([4]; rate 0.0156 kg/ha): 2.0
ORYSAT herbicidal rating ([4]; rate 0.0313 kg/ha): 2.0
ORYSAT herbicidal rating ([4]; rate 0.0625 kg/ha): 3.0
ORYSAT herbicidal rating ([4]; rate 0.1250 kg/ha): 3.0
SETVI preemergence herbicidal rating ([5]; rate 0.0156 kg/ha): 0.0
SETVI preemergence herbicidal rating ([5]; rate 0.0313 kg/ha): 1.0
SETVI preemergence herbicidal rating ([5]; rate 0.0625 kg/ha): 7.0
SETVI preemergence herbicidal rating ([5]; rate 0.1250 kg/ha): 7.5
SETVI preemergence herbicidal rating ([5]; rate 0.2500 kg/ha): 9.0
Herbicidal rating CYPIR ([6]; 0.0313 kg/ha): 0.0
Herbicidal rating CYPIR ([6]; 0.0625 kg/ha): 0.0
Herbicidal rating CYPIR ([6]; 0.1250 kg/ha): 0.0
Herbicidal rating CYPIR ([6]; 0.2500 kg/ha): 0.0
SETVI herbicidal rating ([7]; rate 0.0156 kg/ha): 0.0
SETVI herbicidal rating ([7]; rate 0.0313 kg/ha): 0.0
SETVI herbicidal rating ([7]; rate 0.0625 kg/ha): 6.0
SETVI herbicidal rating ([7]; rate 0.1250 kg/ha): 9.0
ABUTH herbicidal rating ([8]; rate 0.0156 kg/ha): 9.0
ABUTH herbicidal rating ([8]; rate 0.0313 kg/ha): 9.0
ABUTH herbicidal rating ([8]; rate 0.0625 kg/ha): 9.0
ABUTH herbicidal rating ([8]; rate 0.1250 kg/ha): 9.0
Herbicidal rating SAGPY ([9]; rate 0.0313 kg/ha): 0.0
Herbicidal rating SAGPY ([9]; rate 0.0625 kg/ha): 0.0
Herbicidal rating SAGPY ([9]; rate 0.1250 kg/ha): 0.0
Herbicidal rating SAGPY ([9]; rate 0.2500 kg/ha): 0.0
Herbicidal rating ECHORC ([10]; rate 0.0313 kg/ha): 1.0
Herbicidal rating ECHORC ([10]; rate 0.0625 kg/ha): 2.0
Herbicidal rating ECHORC ([10]; rate 0.1250 kg/ha): 2.0
Herbicidal rating ECHORC ([10]; rate 0.2500 kg/ha): 3.0
Herbicidal rating CYPSE ([11]; rate 0.0313 kg/ha): 0.0
Herbicidal rating CYPSE ([11]; rate 0.0625 kg/ha): 0.0
Herbicidal rating CYPSE ([11]; rate 0.1250 kg/ha): 0.0
Herbicidal rating CYPSE ([11]; rate 0.2500 kg/ha): 0.0
AMBEL preemergence herbicidal rating ([12]; rate 0.0156 kg/ha): 0.0
AMBEL preemergence herbicidal rating ([12]; rate 0.0313 kg/ha): 1.0
AMBEL preemergence herbicidal rating ([12]; rate 0.0625 kg/ha): 5.5
AMBEL preemergence herbicidal rating ([12]; rate 0.1250 kg/ha): 6.5
AMBEL preemergence herbicidal rating ([12]; rate 0.2500 kg/ha): 9.0
TRZAWR herbicidal rating ([13]; rate 0.0156 kg/ha): 4.5
TRZAWR herbicidal rating ([13]; rate 0.0313 kg/ha): 4.5
TRZAWR herbicidal rating ([13]; rate 0.0625 kg/ha): 5.5
TRZAWR herbicidal rating ([13]; rate 0.1250 kg/ha): 6.0
ZEAMX herbicidal rating ([14]; rate 0.0156 kg/ha): 6.5
ZEAMX herbicidal rating ([14]; rate 0.0313 kg/ha): 6.5
ZEAMX herbicidal rating ([14]; rate 0.0625 kg/ha): 7.5
ZEAMX herbicidal rating ([14]; rate 0.1250 kg/ha): 7.5
